Test results: patent US6727237B2, “Inhibitors of bacterial NAD synthetase” (priority 1998, dated 2004)

Tested on: Staphylococcus epidermitis
Experiment: Bacterial growth inhibition screen in LB media (absorbance 595 nm), percent inhibition
Conditions: S. epidermitis

Row | SMILES | % Inhibition (concentration screened 10 uM) | % Inhibition (concentration screened 100 uM)
1 | CN(C)c1ccc(C(=O)OCCCCCn2ccc3cc([N+](=O)[O-])ccc32)cc1 [Compound 843] | 2.20% | 
2 | CC(=O)c1ccc2[nH]c(CCCCOC(=O)c3cccnc3)cc2c1 [Compound 690] | 10.01% | 
3 | CC(=O)c1ccc2[nH]c(CCCCCCCCOC(=O)c3ccncc3)cc2c1 [Compound 707] | 3.61% | 
4 | O=C(c1ccccc1)c1ccc2[nH]c(CCCCOC(=O)C(c3ccccc3)c3ccccc3)cc2c1 [Compound 675] |  | 11.37%
5 | CC(C)c1ccc2[nH]c(CCCCOC(=O)c3cccnc3)cc2c1 [Compound 687] | 14.44% | 
6 | O=C(c1ccccc1)c1ccc2[nH]c(CCCCCCCCOC(=O)c3ccccc3-c3ccccc3)cc2c1 [Compound 650] |  | 7.73%
7 | O=C(OCCCCCCCCc1cc2cc(Oc3ccccc3)ccc2[nH]1)c1cccnc1 [Compound 686] | 22.14% | 
8 | O=C(OCCCCCCCCc1cc2cc(C(F)(F)F)ccc2[nH]1)c1cccnc1 [Compound 656] | 2.59% | 
9 | FC(F)(F)c1ccc2[nH]c(CCCCCC[n+]3cccc4ccccc43)cc2c1 [Compound 471] | 14.07% | 
10 | CC(=O)c1ccc2[nH]c(CCCCCCCCOC(=O)c3cccc(N(C)C)c3)cc2c1 [Compound 635] |  | 7.47%
11 | CN(C)c1ccc(C(=O)OCCCCCCCCc2cc3cc([N+](=O)[O-])ccc3[nH]2)cc1 [Compound 727] | 42.23% | 
12 | O=C(OCCCCCCCc1cc2cc(C(F)(F)F)ccc2[nH]1)C(c1ccccc1)c1ccccc1 [Compound 652] | 2.52% | 
13 | O=C(CCc1cccnc1)OCCCCCCCCc1cc2cc([N+](=O)[O-])ccc2[nH]1 [Compound 728] | 13.28% | 
14 | CC(C)c1ccc2[nH]c(CCCCCCCOC(=O)c3ccccc3-c3ccccc3)cc2c1 [Compound 631] | 12.19% | 
15 | CC(C)c1ccc2[nH]c(CCCCCCCCOC(=O)c3ccncc3)cc2c1 [Compound 704] | 19.07% | 
16 | O=C(OCCCCn1ccc2cc([N+](=O)[O-])ccc21)c1cnc2ccccc2c1 [Compound 830] | 42.99% | 
17 | CN(C)c1cccc(C(=O)OCCCCCCn2ccc3cc([N+](=O)[O-])ccc32)c1 [Compound 838] | 17.65% | 
18 | O=C(OCCCCCCCc1cc2cc(Oc3ccccc3)ccc2[nH]1)C(c1ccccc1)c1ccccc1 [Compound 658] | 1.43% | 
19 | O=C(OCCCCCCCc1cc2cc(Oc3ccccc3)ccc2[nH]1)c1ccccc1-c1ccccc1 [Compound 622] | 7.97% | 
20 | CN(C)c1ccc(C(=O)OCCCCCCCc2cc3cc(C(=O)c4ccccc4)ccc3[nH]2)cc1 [Compound 646] | 1.09% | 
21 | c1ccc(Oc2ccc3[nH]c(CCC[n+]4cccc5ccccc54)cc3c2)cc1 [Compound 456] | 3.69% | 
22 | CN(C)c1ccc(C(=O)OCCCCCCCCCn2ccc3cc([N+](=O)[O-])ccc32)cc1 [Compound 847] | 19.84% | 
23 | CC(C)c1ccc2[nH]c(CCCCCCCCOC(=O)c3cccc(N(C)C)c3)cc2c1 [Compound 626] |  | 14.26%
24 | FC(F)(F)c1ccc2cc(CCCCCCC[n+]3cccc4ccccc43)[nH]c2c1 [Compound 400] | 5.50% | 
25 | O=C(OCCCCCCCCc1cc2cc([N+](=O)[O-])ccc2[nH]1)c1ccccc1-c1ccccc1 [Compound 729] | 8.24% | 
26 | C[n+]1cc(C(=O)OCCCCCCCCn2ccc3cc(OCc4ccccc4)ccc32)cc2ccccc21 [Compound 829] | 98.64% | 
27 | c1ccc2[nH]c(CCC[n+]3cccc4ccccc43)cc2c1 [Compound 390] | 5.92% | 
28 | O=C(OCCCCc1cc2cc(C(F)(F)F)ccc2[nH]1)c1ccccc1-c1ccccc1 [Compound 612] |  | 10.24%
